Data published in patent publication US4618627A, “Catechol derivatives and pharmaceutical compositions thereof for inhibiting anaphylaxis (SRS-A)” (priority 1983, dated 1986).

Key:
[1] = system: antigen-induced histamine release; test: Passive peritoneal anaphylaxis (PPA) in rats: histamine release; type: in vivo, male Wistar rats; details: 100 μg/kg i.p.; for inhibition at 0.1 mg/kg: Rattus norvegicus, ip, 30 sec before antigen, histamine, DSCG value is mean of 3 rats (footnote 1)
Procedure: (A) Passive peritoneal anaphylaxis (PPA) in rats The method was based on that of Orange et al^(1). […] After 4 hr, 5 ml of Tyrode solution containing 250 μg heparin and 2 mg DNP-BSA was injected i.p. Test drugs (100 μg/kg) were dissolved in 0.6 ml of saline and injected i.p. 30 sec before antigen administration. Five min. later, the rats were decapitated and the peritoneal fluid was collected by opening the peritoneal cavity into polycarbonate tubes in ice. The supernatant was separated for bioassay from the cellular residue by centrifugation at 2000 rpm for 5 min at 4° C. […] One unit of SRS-A refers to the concentration required to produce a contraction of the guinea-pig ileum equal in amplitude to that produced by 5 ng histamine base in that assay.

[2] = system: antigen-induced SRS-A release; test: Passive peritoneal anaphylaxis (PPA) in rats: SRS-A release; type: in vivo, male Wistar rats; details: Rattus norvegicus, ip, 100 μg/kg i.p., 30 sec before antigen, DSCG value is mean of 3 rats (footnote 1)
Procedure: (A) Passive peritoneal anaphylaxis (PPA) in rats
The method was based on that of Orange et al^(1). Briefly, male Wistar rats weighing 275 to 325 g (Shizuoka Exp. Animal Agric, Coop. Assoc.) were sensitized by intraperitoneally (i.p.) injecting 5 ml of diluted (40-fold) mouse anti-DNP reaginic serum (PCA titer: 1280). After 4 hr, 5 ml of Tyrode solution containing 250 μg heparin and 2 mg DNP-BSA was injected i.p. Test drugs (100 μg/kg) were dissolved in 0.6 ml of saline and injected i.p. 30 sec before antigen administration. Five min. later, the rats were decapitated and the peritoneal fluid was collected by opening the peritoneal cavity into polycarbonate tubes in ice. The supernatant was separated for bioassay from the cellular residue by centrifugation at 2000 rpm for 5 min at 4° C.
Histamine and SRS-A were assayed using isolated guinea-pig ileum in the presence of 10^-7 M FPL-55712 and 10^-6 M mepyramine, respectively, in addition to 5×10^-7 M atropine. One unit of SRS-A refers to the concentration required to produce a contraction of the guinea-pig ileum equal in amplitude to that produced by 5 ng histamine base in that assay.

[3] = target: T1, 5-lipoxygenase (Mus musculus, UniProt P48999); test: Assay of 5-lipoxygenase; type: biochemical; details: enzyme fraction from mastocytoma P-815 cells, [1-14C]-arachidonic acid, 37° C., 5 min; Probit method; read-out: IC 50 5-Lipoxygenase
T1 construct: endogenous in cells
T1 sequence (P48999 1-674): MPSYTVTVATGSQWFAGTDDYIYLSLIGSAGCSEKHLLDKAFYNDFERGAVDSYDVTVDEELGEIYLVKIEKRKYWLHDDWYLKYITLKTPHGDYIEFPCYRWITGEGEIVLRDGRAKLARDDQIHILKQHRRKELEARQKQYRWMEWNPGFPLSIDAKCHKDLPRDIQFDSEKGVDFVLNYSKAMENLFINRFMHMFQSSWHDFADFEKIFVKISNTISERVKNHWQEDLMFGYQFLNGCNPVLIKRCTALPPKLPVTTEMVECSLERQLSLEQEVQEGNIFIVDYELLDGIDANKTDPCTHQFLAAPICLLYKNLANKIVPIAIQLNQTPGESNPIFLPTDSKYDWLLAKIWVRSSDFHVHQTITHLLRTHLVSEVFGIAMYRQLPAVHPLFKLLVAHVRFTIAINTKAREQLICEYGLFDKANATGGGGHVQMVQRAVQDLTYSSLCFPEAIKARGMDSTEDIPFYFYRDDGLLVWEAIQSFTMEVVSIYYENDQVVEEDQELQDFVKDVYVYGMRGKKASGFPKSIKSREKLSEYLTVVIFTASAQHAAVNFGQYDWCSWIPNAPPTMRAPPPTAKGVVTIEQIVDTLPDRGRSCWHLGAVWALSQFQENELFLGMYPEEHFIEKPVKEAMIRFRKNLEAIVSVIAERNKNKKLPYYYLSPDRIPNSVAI
Procedure: (§1) (B) Assay of 5-lipoxygenase and cyclooygenase
(§2) The method was based on that of Koshihara et al^(1). In the case of assay of 5-lipoxygenase activity, an enzyme fraction from mastocytoma P-815 cells (10^7 cells/ml) was incubated with 0.2 μCi [1-^14 C]-arachidonic acid (56.9 Ci/mol), 0.8 mM CaCl2, 2×10^-5 M indoemthacin and various concentrations of test drugs at 37° C. for 5 min. In the case of assay of cyclooxygenase activity, CaCl2 and indomethacin were omitted from the above incubation mixture and incubation was performed at 37° C. for 7 min. Both reactions were terminated by adjusting the pH of the mixture to 3.0 with HCl. After extraction of the products with 8 volume ethyl acetate, each extract was concentrated and applied to TLC plate. For the separation of HETEs and prostaglandins, thin-layer chromatography was carried out using the solvent system: petroleum ether/diethyl ether/acetic acid (50:50:1) and ethyl acetate/2,2,4-trimethylpentane/acetic acid/water (11:5:2:10, upper phase), respectively. Radioactive spots were detected by autoradiography and scraped off and counted using a liquid scintillation spectrometer. The activities of 5-lipoxygenase and cyclooxygenase were expressed as the sum of radioactivities due to 5-HETE and 5,12-diHETE and due to PGD2, PGE2 and PGF2α, respectively. The IC 50 values were calculated by Probit method.

[4] = target: cyclooxygenase; test: Assay of cyclooxygenase; type: biochemical; details: enzyme fraction from mastocytoma P-815 cells, [1-14C]-arachidonic acid, 37° C., 7 min, Probit method; for IC50: read-out: IC 50 Cyclooxygenase
Procedure: as §1, §2

| Structure (SMILES) | inhibition at 0.1 mg/kg [1] | inhibition at 0.1 mg/kg [2] | IC50 [3] | IC50 [4] | inhibition of histamine release (selectivity versus SRS-A) ([1]; rat PPA) | IC 50 Cyclooxygenase [4] |
| --- | --- | --- | --- | --- | --- | --- |
| OCCCCCCCCCc1ccc(O)c(O)c1 [Example 25A, 9-(3,4-Dihydroxyphenyl)-1-nonanol] | -8.3% | 43.9% | – | – | – | – |
| CCCCCCC(O)CCc1ccc(O)c(O)c1 (centres unmarked) [Example 2, 1-(3,4-dihydroxyphenyl)-3-nonanol] | 5.2% | 57.3% | – | – | – | – |
| CCCCCCC(=O)CCc1ccc(O)c(O)c1 [Example 3, 1-(3,4-dihydroxyphenyl)-3-nonanone] | 22.6% | 53.9% | – | – | – | – |
| CCCCCCCCC(O)CCc1ccc(O)c(O)c1 (centres unmarked) [Example 9, 1-(3,4-Dihydroxyphenyl)-3-undecanol] | 21.6% | 53.6% | 100 nM | > 10000 nM | – | – |
| O=C(O)c1cc(=O)c2c(OCC(O)COc3cccc4oc(C(=O)O)cc(=O)c34)cccc2o1 [DSCG, disodium cromoglycate, reference compound] | 75.2% | 46.6% | – | – | inhibited the histamine release in a relatively selective manner | – |
| CCCCCCC(O)CCCc1ccc(O)c(O)c1 (centres unmarked) [Example 15, 1-(3,4-dihydroxyphenyl)-4-decanol] | 18.4% | 46.2% | – | – | – | – |
| CCCCC(C)C(O)CCc1ccc(O)c(O)c1 (centres unmarked) [Example 1, 1-(3,4-dihydroxyphenyl)-4-methyl-3-octanol] | 37.8% | 76.6% | 300 nM | – | – | En- hanced |
| CC(=O)CCCCCCCc1ccc(O)c(O)c1 [Example 20, 9-(3,4-dihydroxyphenyl)-2-nonanone] | 17.9% | 62.8% | 230 nM | – | – | – |
| CCCCCC(C)C(O)CCc1ccc(O)c(O)c1 (centres unmarked) [Example 11, 1-(3,4-Dihydroxyphenyl)-4-methyl-3-nonanol] | 17.6% | 66.6% | – | – | – | – |
| OCCCCCCCCCCCc1ccc(O)c(O)c1 [Example 23, 11-(3,4-dihydroxyphenyl)-1-undecanol] | 10.7% | 69.6% | 54 nM | > 10000 nM | – | – |
| CCCCCC(C)C(=O)C=Cc1ccc(O)c(O)c1 (centres unmarked) [Example 29, 1-(3,4-dihydroxyphenyl)-4-methyl-1-nonen-3-one] | -32.4% | 38.2% | – | – | – | – |
| CCCCCCCCCC(=O)Cc1ccc(O)c(O)c1 [Example 14, 1-(3,4-dihydroxyphenyl)-2-undecanone] | 32.7% | 58.9% | – | – | – | – |
